The values below come from patent publication US10138212B2, “Aminoquinazoline compounds as A2A antagonist” (Merck Sharp & Dohme Corp., priority 2015, dated 2018).

The target in one assay is human A2a receptor (Homo sapiens (Human), UniProt P29274). Put plainly: A2a competition binding assay using Scintillation Proximity technology. An outline of the steps: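 Membranes (0.25 or 1 μg) from HEK293 expressing the receptor were pretreated with adenosine deaminase and bound to WGA-coated yttrium silicate SPA beads. They were incubated 1 h at room temperature with compound at 3000–0.15 nM and 0.5 nM tritiated pyrazolotriazolopyrimidine ligand in Ca/Mg-free DPBS with 10 mM MgCl2. Ki was derived from […] by Cheng-Prusoff.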
Sequence of human A2a receptor (P29274 whole entry): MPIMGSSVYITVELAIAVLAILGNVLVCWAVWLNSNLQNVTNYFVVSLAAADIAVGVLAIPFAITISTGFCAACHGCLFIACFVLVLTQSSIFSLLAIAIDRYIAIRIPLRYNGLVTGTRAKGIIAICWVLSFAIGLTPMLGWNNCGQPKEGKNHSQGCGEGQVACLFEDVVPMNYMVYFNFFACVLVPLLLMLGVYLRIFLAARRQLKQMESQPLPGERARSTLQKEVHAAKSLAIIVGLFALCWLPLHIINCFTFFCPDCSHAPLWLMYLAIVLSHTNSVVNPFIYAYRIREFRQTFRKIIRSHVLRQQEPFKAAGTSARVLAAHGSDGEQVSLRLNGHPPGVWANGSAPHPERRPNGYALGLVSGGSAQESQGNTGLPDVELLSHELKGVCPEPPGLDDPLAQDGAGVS

The target of the next assay is human A1 receptor (Homo sapiens (Human), UniProt P30542). As to the kind of experiment: A1 competition binding assay using Scintillation Proximity technology; selectivity = A1 binding Ki / A2a binding Ki. Particulars: A1 binding Ki divided by A2a binding Ki. The essentials:
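SPA competition using 5 ug membranes from CHO-K1 cells expressing human A1, pretreated with adenosine deaminase. Radioligand was 0.7 nM [3H]DPCPX (final), with compound at 3000–0.15 nM in DPBS + 10 mM MgCl2. Incubation was 1 h at room temperature. Non-specific binding was defined with 1 uM DPCPX, and Ki was derived as for A2a.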

[1] abbreviates: 0.25 μg of membranes from HEK293 cells expressing the human A2a receptor.
[2] abbreviates: * assay run with 1 μg of membranes versus 0.25 μg, HEK293 cells expressing the human A2a receptor.

Sequence of human A1 receptor (P30542 whole entry): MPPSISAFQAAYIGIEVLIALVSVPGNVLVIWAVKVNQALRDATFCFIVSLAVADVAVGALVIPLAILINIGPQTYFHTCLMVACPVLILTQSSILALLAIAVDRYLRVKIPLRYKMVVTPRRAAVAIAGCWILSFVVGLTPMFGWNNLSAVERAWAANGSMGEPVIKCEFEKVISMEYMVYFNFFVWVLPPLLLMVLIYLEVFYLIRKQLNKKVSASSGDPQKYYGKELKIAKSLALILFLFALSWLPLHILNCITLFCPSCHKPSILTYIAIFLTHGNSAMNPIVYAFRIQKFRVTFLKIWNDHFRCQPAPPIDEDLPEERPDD

`COc1cccc2c(C(=O)NCc3cccc(CO)n3)nc(N)nc12` [Example 14, 2-amino-N-[[6-(hydroxymethyl)-2-pyridyl]methyl]-8-methoxy-quinazoline-4-carboxamide]: the Ki at human A2a receptor (setting [1]) amounted to 4.6 nM. For the same compound, the “A2a selectivity (A2a A1 binding selectivity)” value (shortened to “A2a selectivity”) on human A1 receptor came out at 273.

At human A2a receptor (setting [1]), `COc1cccc2c(C(=O)NCc3cccc(COCC4CC4)n3)nc(N)nc12` [Example 50, 2-amino-N-[[6-(cyclopropylmethoxy-methyl)-2-pyridyl]methyl]-8-methoxy-quinazoline-4-carboxamide] gave a Ki of 1.3 nM. For the same compound, the “A2a selectivity” value at human A1 receptor stood at 160.

As to `COc1cccc2c(C(=O)NCc3cccc(CO[C@H]4CCOC4)n3)nc(N)nc12` [Example 52, 2-amino-8-methoxy-N-[[6-[[(3S)-tetrahydrofuran-3-yl]oxymethyl]-2-pyridyl]methyl]quinazoline-4-carboxamide], affinity on human A2a receptor (setting [1]) was put at a Ki of 1.1 nM. Also, the “A2a selectivity” value at human A1 receptor is recorded as 140.

As for `N#Cc1cccc2c(C(=O)NCc3cccc4cccnc34)nc(N)nc12` [Example 100, 2-amino-8-cyano-N-(8-quinolylmethyl)quinazoline-4-carboxamide], the inhibitory constant (Ki) on human A2a receptor (setting [1]) was found to be 2.1 nM. Besides, the “A2a selectivity” value at human A1 receptor stood at 163.

`Cc1ccc(-c2cccnc2CNC(=O)c2nc(N)nc3c(F)cccc23)nc1` [Example 68, 2-amino-8-fluoro-N-[[3-(5-methyl-2-pyridyl)-2-pyridyl]methyl]quinazoline-4-carboxamide]: affinity at human A2a receptor (setting [2]) was put at a Ki of 9.1 nM. On human A1 receptor, the “A2a selectivity” value was found to be 44.

The compound `N#Cc1ccc(OCc2cccc(CNC(=O)c3nc(N)nc4c(F)cccc34)n2)cc1` [Example 47, 2-amino-N-[[6-[(4-cyanophenoxy)methyl]-2-pyridyl]methyl]-8-fluoro-quinazoline-4-carboxamide] returned a Ki at human A2a receptor (setting [2]) of 3.8 nM. For the same compound, the “A2a selectivity” value at human A1 receptor was found to be 36.

On human A2a receptor (setting [1]), `COc1cccc2c(C(=O)NCc3nc(C)ccc3C)nc(N)nc12` [Example 11, 2-amino-N-[(3,6-dimethyl-2-pyridyl)methyl]-8-methoxy-quinazoline-4-carboxamide] came in with a Ki of 0.2 nM. For the same compound, the “A2a selectivity” value at human A1 receptor was 208.

Take `Nc1nc(C(=O)NCc2cccc(C(F)F)n2)c2cccc(F)c2n1` [Example 71, 2-amino-N-[[6-(difluoromethyl)-2-pyridyl]methyl]-8-fluoro-quinazoline-4-carboxamide]: the Ki on human A2a receptor (setting [1]) came out at 3.6 nM. For the same compound, at human A1 receptor, the “A2a selectivity” value came to 60.

On human A2a receptor (setting [1]), `CCn1cccc(CNC(=O)c2nc(N)nc3c(OC)cccc23)c1=O` [Example 13, 2-amino-N-[(1-ethyl-2-oxo-3-pyridyl)methyl]-8-methoxy-quinazoline-4-carboxamide] gave a Ki of 0.2 nM. The “A2a selectivity” value on human A1 receptor is listed as 112.

For the compound `Nc1nc(C(=O)NCc2ccccc2-n2cccn2)c2cccc(F)c2n1` [Example 62, 2-amino-8-fluoro-N-[(2-pyrazol-1-ylphenyl)methyl]quinazoline-4-carboxamide], the affinity at human A2a receptor (setting [1]), expressed as Ki, was 0.5 nM. The “A2a selectivity” value on human A1 receptor was 297.

As for `Cc1ccc(CNC(=O)c2nc(N)nc3c(F)cccc23)nc1` [Example 72, 2-amino-8-fluoro-N-[(5-methyl-2-pyridyl)methyl]quinazoline-4-carboxamide], the Ki on human A2a receptor (setting [1]) came out at 6.1 nM. In addition, the “A2a selectivity” value at human A1 receptor is 30.

In the case of `COc1cccc2c(C(=O)NCc3cccc(-c4ccccn4)n3)nc(N)nc12` [Example 10, 2-amino-8-methoxy-N-[[6-(2-pyridyl)-2-pyridyl]methyl]quinazoline-4-carboxamide], the Ki at human A2a receptor (setting [1]) is 1.2 nM. In addition, the “A2a selectivity” value on human A1 receptor is on record as 113.

In turn, `Cc1csc(-c2cccc(CNC(=O)c3nc(N)nc4c(F)cccc34)n2)n1` [Example 69, 2-amino-8-fluoro-N-[[6-(4-methylthiazol-2-yl)-2-pyridyl]methyl]quinazoline-4-carboxamide] gave a Ki on human A2a receptor (setting [1]) of 4.2 nM. The “A2a selectivity” value at human A1 receptor is given as 63.

As to `[2H]C([2H])(NC(=O)c1nc(N)nc2c(OC)cccc12)c1cccc(C([2H])([2H])c2cncc(N3CCOCC3)c2)n1` [Example 110, 2-amino-N-[dideuterio-[6-[dideuterio-(5-morpholino-3-pyridyl)methyl]-2-pyridyl]methyl]-8-methoxy-quinazoline-4-carboxamide], on human A2a receptor (setting [2]), the Ki was found to be 2.5 nM. In addition, on human A1 receptor, the “A2a selectivity” value was 64.

In the case of `COc1cccc2c(C(=O)NCc3cccc(C)n3)nc(N)nc12` [Example 15, 2-amino-8-methoxy-N-[(6-methyl-2-pyridyl)methyl]quinazoline-4-carboxamide], the affinity at human A2a receptor (setting [1]), expressed as Ki, was 0.5 nM. Moreover, the “A2a selectivity” value on human A1 receptor is 319.

Take `Nc1nc(C(=O)NCc2cc(C3CC3)on2)c2cccc(F)c2n1` [Example 83, 2-amino-N-[(5-cyclopropylisoxazol-3-yl)methyl]-8-fluoro-quinazoline-4-carboxamide]: affinity at human A2a receptor (setting [1]) was put at a Ki of 14 nM. Besides, at human A1 receptor, the “A2a selectivity” value stood at 3.

At human A2a receptor (setting [1]), `CS(=O)(=O)c1cccc2c(C(=O)NCc3cccc4cccnc34)nc(N)nc12` [Example 95, 2-amino-8-methylsulfonyl-N-(8-quinolylmethyl)quinazoline-4-carboxamide] registered a Ki of 86 nM. The “A2a selectivity” value on human A1 receptor was determined as 55.

`COc1cccc2c(C(=O)NCc3ccccc3-c3ccccn3)nc(N)nc12` [Example 43, 2-amino-8-methoxy-N-[[2-(2-pyridyl)phenyl]methyl]quinazoline-4-carboxamide] had a Ki on human A2a receptor (setting [2]) of 2.3 nM. Further, the “A2a selectivity” value at human A1 receptor stood at 84.

Regarding `[2H]C([2H])(NC(=O)c1nc(N)nc2c(OC)cccc12)c1cccc(C([2H])([2H])c2ccc(C(C)(C)OCOC)nc2)n1` [Example 109, 2-amino-N-[dideuterio-[6-[dideuterio-[6-[1-(methoxymethoxy)-1-methyl-ethyl]-3-pyridyl]methyl]-2-pyridyl]methyl]-8-methoxy-quinazoline-4-carboxamide], the affinity at human A2a receptor (setting [2]), expressed as Ki, was 2.3 nM. At human A1 receptor, the “A2a selectivity” value stood at 120.

At human A2a receptor (setting [1]), `COc1cccc2c(C(=O)NC3CCc4ccccc4C3)nc(N)nc12` (centres unmarked) [Example 34, 2-amino-8-methoxy-N-[2-tetralin-2-yl]quinazoline-4-carboxamide] came in with a Ki of 20 nM. Besides, on human A1 receptor, the “A2a selectivity” value was 46.

On to `COc1cccc2c(C(=O)N[C@@H]3CCc4ccccc43)nc(N)nc12` [Example 33, 2-amino-N-[(1R)-indan-1-yl]-8-methoxy-quinazoline-4-carboxamide], for which the Ki at human A2a receptor (setting [1]) came to 5.3 nM. Besides, at human A1 receptor, the “A2a selectivity” value came out at 60.

For `Cc1cccc(CNC(=O)c2nc(N)nc3c(Cl)cc(Cl)cc23)n1` [Example 93, 2-amino-6,8-dichloro-N-[(6-methyl-2-pyridyl)methyl]quinazoline-4-carboxamide], the Ki on human A2a receptor (setting [1]) was found to be 6.5 nM. In addition, the “A2a selectivity” value at human A1 receptor is 55.

On to `COc1cccc2c(C(=O)NCc3cccc(COCC(C)C)n3)nc(N)nc12` [Example 51, 2-amino-N-[[6-(isobutoxymethyl)-2-pyridyl]methyl]-8-methoxy-quinazoline-4-carboxamide], for which affinity on human A2a receptor (setting [1]) was put at a Ki of 1.9 nM. Also, the “A2a selectivity” value at human A1 receptor was found to be 90.

On to `COc1ccc(C)c(CNC(=O)c2nc(N)nc3c(F)cccc23)n1` [Example 77, 2-amino-8-fluoro-N-[(6-methoxy-3-methyl-2-pyridyl)methyl]quinazoline-4-carboxamide], for which affinity at human A2a receptor (setting [1]) was put at a Ki of 0.8 nM. The “A2a selectivity” value at human A1 receptor came to 62.

The compound `COC(=O)c1cccc(CNC(=O)c2nc(N)nc3c(F)cccc23)n1` [Example 75, methyl 6-[[(2-amino-8-fluoro-quinazoline-4-carbonyl)amino]methyl]pyridine-2-carboxylate] yielded a Ki on human A2a receptor (setting [2]) of 23 nM. Also, at human A1 receptor, the “A2a selectivity” value came out at 14.

In turn, `COc1cccc2c(C(=O)NCc3ccc4ccccc4n3)nc(N)nc12` [Example 30, 2-amino-8-methoxy-N-(2-quinolylmethyl)quinazoline-4-carboxamide] displayed a Ki at human A2a receptor (setting [1]) of 1.5 nM. Also, at human A1 receptor, the “A2a selectivity” value stood at 138.

Compound `COc1cccc2c(C(=O)NCc3cccc4cccnc34)nc(N)nc12` [Example 12, 2-amino-8-methoxy-N-(8-quinolylmethyl)quinazoline-4-carboxamide] returned a Ki on human A2a receptor (setting [1]) of 0.2 nM. Moreover, the “A2a selectivity” value on human A1 receptor was 32.

At human A2a receptor (setting [1]), `Nc1nc(C(=O)NCc2ncccn2)c2cccc(I)c2n1` [Example 99, 2-amino-8-iodo-N-(pyrimidin-2-ylmethyl)quinazoline-4-carboxamide] returned a Ki of 229 nM. Moreover, on human A1 receptor, the “A2a selectivity” value is 8.

On to `CC(C)Oc1cccc(CNC(=O)c2nc(N)nc3c(F)cccc23)n1` [Example 78, 2-amino-8-fluoro-N-[(6-isoppropoxy-2-pyridyl)methyl]quinazoline-4-carboxamide], for which, on human A2a receptor (setting [1]), affinity was put at a Ki of 1 nM. In addition, the “A2a selectivity” value at human A1 receptor came to 75.

For the compound `Cc1ccc(F)c(CNC(=O)c2nc(N)nc3c(F)cccc23)n1` [Example 76, 2-amino-8-fluoro-N-[(3-fluoro-6-methyl-2-pyridyl)methyl]quinazoline-4-carboxamide], the Ki at human A2a receptor (setting [1]) was found to be 0.5 nM. For the same compound, the “A2a selectivity” value on human A1 receptor came out at 115.

The compound `CSc1cccc2c(C(=O)NCc3cccc4cccnc34)nc(N)nc12` [Example 94, 2-amino-8-methylsulfanyl-N-(8-quinolylmethyl)quinazoline-4-carboxamide] returned a Ki at human A2a receptor (setting [2]) of 7.7 nM. Further, the “A2a selectivity” value at human A1 receptor was 11.
